Assay results reported in patent US10647677B2, “Analogues of hydroxychloroquine (HCQ) without retinal toxicity” (Inoviem Scientific, priority 2015, dated 2020).

Columns and labels:
Assay type in all cases: in vivo
[1] = test system: MRL/Ipr mice (lupus model); assay: Survival of MRL/Ipr mice (lupus model); conditions: 10 mg/kg IP, compared with HCQ at the same dose (FIG. 1)
Description: (§1) The MRL/MPJ-Fas (Ipr) (MRL-Ipr) and C57Bl/6 mice for the behavioral experiments are from the Jackson Laboratory and are randomly distributed into 5 groups. All animals were kept at controlled temperature (23° C.+/−1° C.) with a 12-hour day/night cycle, water and ad libitum food.
(§2) Mice received the specified dose of hydroxychloroquine (Tokyo Chemical Industry), CB137 or carrier intraperitoneally (IP), every 24 hours and for 5 days over a 10-week period. With regard to the MRL/Ipr mice, treatment started at 7 weeks of age, and ended at 23 weeks of age where a significant proportion of untreated mice died. With regard to the C57B1/6 mice, the same treatment program was carried out and the mice were sacrificed after […]. HCQ and CB137 were each freshly prepared in physiological saline and injected into the mice in a final volume of 50 μL. The MRL/Ipr mice were examined daily for skin lesions. For histological analysis, the animals were sacrificed and the tissues were rapidly dissected and immediately post-fixed.

[2] = test system: MRL/Ipr mice (lupus model); assay: Development of the disease: dermatitis in MRL/Ipr mice; conditions: 10 mg/kg, compared to carrier and HCQ 10 mg/kg (FIG. 2)
Description: as §1, §2
Dermatitis was less common in mice treated with CB137 10 mg/kg compared to control (carrier) mice and HCQ treated mice (10 mg/kg (FIG. 2).

retina of mice = assay: Determination of retinopathy: histological analysis of the retina; conditions: HCQ 10 mg/kg or CB137 5, 10 and 15 mg/kg, 5 times weekly for 62 days (FIGS. 3 and 4)
Description: Histology: 7-week-old mice are injected with 10 mg/kg HCQ or 5, 10 and 15 mg/kg of the CB137 analog 5 times weekly for a period of 62 days. After assigning them a number, the mice are randomized according to their weight and treatment. The mice are divided in groups of 5 in cages, one mouse being treated with the carrier, one with HCQ 10 mg/kg, one with CB137 5 mg/kg, one with CB137 10 mg/kg and one with CB137 15 mg/Kg. The mice are housed in an environment maintained at a temperature of 22° C., 35-55% humidity and with 12-hour cycles of light/darkness.
At the end of the experiment, the mice are euthanized by cervical dislocation. The eyeballs are isolated and stored in a solution containing 4% paraformaldehyde, 5% glutaraldehyde and 0.1 M sodium cacodylate overnight at 4° C. The samples are washed, dehydrated and embedded in paraffin. The 4-μm retinal sections are stained with 1% toluidine blue followed by 1% methylene blue. The retinal toxicity of the samples is then determined by analysis of the sections under microscope.

[3] = test system: C57Bl/6 mice, pulmonary vasculitis induced by immune complexes; assay: Pulmonary vasculitis induced by immune complexes: neutrophils in bronchoalveolar lavages (flow cytometry); conditions: HCQ 10 mg/kg, CB137 10, 30 and 100 mg/kg, 4 hours after instillation, compared to control + (FIG. 5)
Description: Female C57Bl/6 strain mice from the Jackson Laboratory, 8-10 weeks old and weighing about 20 g, are used in all experiments. The mice are maintained at a temperature of 23° C.±1° C. with 12-hour light/dark cycle. Mice have access to water and food ad libitum and are housed at least one week before the beginning of any experiments.
A retro-orbital blood sampling was performed using capillaries containing heparin on mice anesthetized with isoflurane the day before the manipulation. The next day, the mice were anesthetized with a mixture of ketamine and xylasin (90 mg/kg and 125 mg/kg, respectively). The immune IgG complex is induced in the lungs by intratracheal instillation of 0.5 mg of anti-BSA rabbit antibody (MP Biomedicals, Strasbourg, France) and by the administration of 0.5 mg per mouse of BSA antigen in the caudal vein (Warner et al., 2001 and Warren et al., 1989). The specified treatment (PF-1355, CB137 or solvent alone) is administered enterally. The animals are euthanized 4 hours after intratracheal instillation.
The animals are euthanized 4 hours after the intratracheal instillation by a lethal injection of pentobarbital. A submandibular blood sample is taken. […] The total number of cells, excluding any residual red cells and dead cells stained with trypan blue, is determined under the light microscope on a Malassez cell. […]

Structure (SMILES)	survival rate [1]	dermatitis (rate of mice having dermatitis) [2]	retinal lesions (histology) (retina of mice)	amount of neutrophils in bronchoalveolar lavages / lungs [3]
CCN(CCO)CCCC(C)Nc1c(Cl)cnc2cc(Cl)ccc12 (stereo not drawn) [CB137]	significantly higher survival rate	less common	does not induce more lesions than in the control mice	decreases the amount of neutrophils
CCN(CCO)CCCC(C)Nc1ccnc2cc(Cl)ccc12 (stereo not drawn) [Commercial HCQ, hydroxychloroquine]			induces retinal lesions	slightly increase the amount of neutrophils
